# According to patent publication US4818761A, “2-(4-pyridylaminomethyl)-benzimidazole derivatives having antiviral activity” (priority 1986, dated 1989):
# Tests used:
# [1] = system: poliovirus type 2 (Polio2); experiment: microbe, parasite or virus in culture; format: cell-based; conditions: for IC50: Enterovirus C, LLC-MK2, read-out: IC50 Polio2; for CI Polio2 (C)/(A): CI = CD50 (LLC-MK2)/IC50 (plaque)
# in vitro [2] = conditions: human, hela cells
# [3] = system: coxsackievirus type B4 (CB4); experiment: Inhibition of CB4 plaque formation in LLC-MK2 cells; format: cell-based; conditions: for CI CB4 (C)/(A): CI = CD50 (LLC-MK2)/IC50 (plaque); for IC50: Coxsackievirus, plaque reduction, LLC-MK2 cells, 37° C.
# [4] = system: rhinovirus type 14 (HRV14); experiment: Inhibition of HRV14 plaque formation in HeLa cells; format: cell-based; conditions: for CI HRV14 (D)/(B): CI = CD50 (HeLa)/IC50 (plaque); for IC50: Enterovirus, HRV14, plaque reduction, HeLa cells, 33° C.
# [5] = system: enterovirus type 70 (EV70); experiment: Inhibition of EV70 plaque formation in LLC-MK2 cells; format: cell-based; conditions: for CI EV70 (C)/(A): CI = CD50 (LLC-MK2)/IC50 (plaque); for IC50: Enterovirus D, plaque reduction, LLC-MK2 cells, 33° C.
# in vitro [6] = conditions: monkey, llc-mk2 cells
# [7] = system: enterovirus type 70 (EV70); experiment: Inhibition of EV70 cytopathogenic effect (CPE) in LLC-MK2 cells; format: cell-based; conditions: for IC50: Enterovirus D, * Virus CPE inhibition assay, LLC-MK2 cells, 33° C.; for CI EV70 (C)/(A): CI = CD50 (LLC-MK2)/IC50 (virus CPE)
# [8] = system: coxsackievirus type B4 (CB4); experiment: Inhibition of CB4 cytopathogenic effect (CPE) in LLC-MK2 cells; format: cell-based; conditions: for CI CB4 (C)/(A): CI = CD50 (LLC-MK2)/IC50 (virus CPE); for IC50: Coxsackievirus, * Virus CPE inhibition assay, LLC-MK2 cells, 37° C.
Compound,IC50 [1],CC50 (in vitro [2]),CI CB4 (C)/(A) [3],IC50 [3],CI HRV14 (D)/(B) [4],IC50 [4],CI EV70 (C)/(A) [5],IC50 [5],CC50 (in vitro [6]),IC50 [7],CI Polio2 (C)/(A) [1],CI CB4 (C)/(A) [8],IC50 [8],CI EV70 (C)/(A) [7]
"Brc1ccc2[nH]c(CNc3ccncc3)nc2c1 [I, 2-(4-pyridylaminomethyl)-5-(6)-bromobenzimidazole]",> 25 µg/mL,17.8 µg/mL,17,18 µg/mL,3,5.8 µg/mL,101,3.1 µg/mL,312 µg/mL,–,–,–,–,–
Ic1ccc2[nH]c(CNc3ccncc3)nc2c1 [III],> 100 µg/mL,–,> 3,33 µg/mL,–,6.2 µg/mL,> 15,6.5 µg/mL,> 100 µg/mL,–,–,–,–,–
Fc1ccc2[nH]c(CNc3ccncc3)nc2c1 [II],> 25 µg/mL,56.2 µg/mL,29,6 µg/mL,4,14.5 µg/mL,126,1.4 µg/mL,177 µg/mL,–,–,–,–,–
c1ccc(-c2ccc3[nH]c(CNc4ccncc4)nc3c2)cc1 [IX],–,–,–,–,–,–,–,–,> 100 µg/mL,> 100 µg/mL,–,–,–,–
"CC(C)CCn1c(CNc2ccncc2)nc2ccccc21.Cl [L, 1-isoamyl-2-(4-pyridylaminomethyl)benzimidazole hydrochloride]",4.3 µg/mL,–,"4,159",0.34 µg/mL,–,> 100 µg/mL,"1,010",1.4 µg/mL,1410 µg/mL,–,329,–,–,–
OCCCCn1c(CNc2ccncc2)nc2ccccc21 [LII],–,–,–,–,–,–,–,–,> 100 µg/mL,> 100 µg/mL,–,> 6,17.8 µg/mL,–
OCCCn1c(CNc2ccncc2)nc2ccccc21 [LI],–,–,–,–,–,> 100 µg/mL,–,–,> 1000 µg/mL,> 100 µg/mL,–,18,56.2 µg/mL,–
c1ccc(CCCn2c(CNc3ccncc3)nc3ccccc32)cc1 [LVI],–,–,–,–,–,–,–,–,> 100 µg/mL,> 100 µg/mL,–,–,> 100 µg/mL,–
Cc1cccc(-n2c(CNc3ccncc3)nc3ccccc32)c1 [LXIII],–,–,–,–,–,–,> 18,5.6 µg/mL,> 100 µg/mL,–,–,> 18,5.6 µg/mL,–
Cc1ccccc1-n1c(CNc2ccncc2)nc2ccccc21 [LXII],–,–,–,–,–,–,–,–,> 100 µg/mL,> 100 µg/mL,–,–,> 100 µg/mL,–
FC(F)(F)c1ccc(-n2c(CNc3ccncc3)nc3ccccc32)cc1 [LXIV],–,–,–,–,–,–,–,–,> 100 µg/mL,> 100 µg/mL,–,> 18,5.6 µg/mL,–
Clc1ccc(-n2c(CNc3ccncc3)nc3ccccc32)cc1Cl [LXIX],–,–,–,–,–,–,–,–,> 100 µg/mL,5.6 µg/mL,–,> 18,5.6 µg/mL,> 18
Ic1ccc(-n2c(CNc3ccncc3)nc3ccccc32)cc1 [LXI],–,–,–,–,–,–,–,–,> 100 µg/mL,> 100 µg/mL,–,–,> 100 µg/mL,–
COc1ccc(-n2c(CNc3ccncc3)nc3ccccc32)cc1 [LXVIII],–,–,–,–,–,–,–,–,> 100 µg/mL,> 100 µg/mL,–,> 18,5.6 µg/mL,–
COc1ccccc1-n1c(CNc2ccncc2)nc2ccccc21 [LXVII],–,–,–,–,–,–,–,–,–,> 100 µg/mL,–,–,> 100 µg/mL,–
CCc1ccc(-n2c(CNc3ccncc3)nc3ccccc32)cc1 [LXVI],> 100 µg/mL,–,> 37,2.7 µg/mL,–,> 100 µg/mL,–,> 100 µg/mL,> 100 µg/mL,–,–,–,–,–
Cc1cc(C)c(-n2c(CNc3ccncc3)nc3ccccc32)c(C)c1 [LXXII],–,–,–,–,–,–,–,–,> 100 µg/mL,> 100 µg/mL,–,–,> 100 µg/mL,–
CC(C)(C)c1ccc2[nH]c(CNc3ccncc3)nc2c1 [VIII],–,–,–,–,–,–,–,–,> 100 µg/mL,> 100 µg/mL,–,–,–,–
CCCCc1ccc2[nH]c(CNc3ccncc3)nc2c1 [VII],–,–,–,–,–,–,3,17.8 µg/mL,56.2 µg/mL,–,–,–,–,–
CCCc1ccc2[nH]c(CNc3ccncc3)nc2c1 [V],> 100 µg/mL,–,–,> 100 µg/mL,–,–,93,3.8 µg/mL,354 µg/mL,–,–,–,–,–
"CC(C)n1c(CNc2ccncc2)nc2ccccc21.Cl [XIII, 1-isopropyl-2-(4-pyridylaminomethyl)benzimidazole hydrochloride]",–,–,> 1,85 µg/mL,–,–,–,–,> 100 µg/mL,> 100 µg/mL,–,–,–,–
CC=Cn1c(CNc2ccncc2)nc2ccccc21 [XIV],–,–,> 36,56.2 µg/mL,–,–,–,–,> 2000 µg/mL,> 100 µg/mL,–,–,–,–
CCCCCCCCn1c(CNc2ccncc2)nc2ccccc21 [XIX],–,–,24,14.8 µg/mL,–,–,–,–,354 µg/mL,> 100 µg/mL,–,–,–,–

Compound,IC50 [1],CC50 (in vitro [2]),CI CB4 (C)/(A) [3],IC50 [3],CI HRV14 (D)/(B) [4],IC50 [4],CI EV70 (C)/(A) [5],IC50 [5],CC50 (in vitro [6]),IC50 [7],CI Polio2 (C)/(A) [1],CI CB4 (C)/(A) [8],IC50 [8],CI EV70 (C)/(A) [7]
CCn1c(CNc2ccncc2)nc2ccccc21 [XI],–,–,"1,768",3.2 µg/mL,–,–,–,–,5660 µg/mL,> 100 µg/mL,–,–,–,–
"CCn1c(CNc2ccncc2)nc2cc(C)ccc21 [XL, 1-ethyl-2-(4-pyridylaminomethyl)-5-methyl benzimidazole]",–,–,–,–,–,–,–,–,> 100 µg/mL,> 100 µg/mL,–,> 2,56.2 µg/mL,–
CCCCn1c(CNc2ccncc2)nc2cc(C)ccc21 [XLII],27.6 µg/mL,–,"1,010",1.4 µg/mL,–,> 50 µg/mL,240,5.9 µg/mL,1410 µg/mL,–,51,–,–,–
CCc1ccc2c(c1)nc(CNc1ccncc1)n2CC [XLI],–,–,–,–,–,–,–,–,> 100 µg/mL,> 100 µg/mL,–,–,> 100 µg/mL,–
Clc1ccc2c(c1)nc(CNc1ccncc1)n2-c1ccccc1 [XLVI],–,–,–,–,–,–,–,–,> 100 µg/mL,13.2 µg/mL,–,> 56,1.8 µg/mL,> 8
CCCCCCn1c(CNc2ccncc2)nc2ccccc21 [XVIII],> 100 µg/mL,–,544,1.3 µg/mL,–,–,16,44 µg/mL,707 µg/mL,–,–,–,–,–
c1ccc2c(c1)nc(CNc1ccncc1)n2C1CCCC1 [XVII],–,–,–,–,–,> 50 µg/mL,–,–,1410 µg/mL,> 100 µg/mL,–,> 253,5.6 µg/mL,–
CCCCCn1c(CNc2ccncc2)nc2ccccc21 [XVI],19 µg/mL,–,"> 2,828",< 0.5 µg/mL,–,> 50 µg/mL,643,2.2 µg/mL,1410 µg/mL,–,74,–,–,–
CCCCn1c(CNc2ccncc2)nc2ccccc21 [XV],3.2 µg/mL,–,"> 5,405",0.37 µg/mL,–,> 50 µg/mL,"> 1,429",1.4 µg/mL,> 2000 µg/mL,–,> 625,–,–,–
Fc1ccc(-n2c(CNc3ccncc3)nc3ccccc32)cc1 [XXIII],7.8 µg/mL,–,"> 2,410",0.83 µg/mL,–,30 µg/mL,"> 1,818",1.1 µg/mL,> 2000 µg/mL,–,> 256,–,–,–
Cc1ccc(-n2c(CNc3ccncc3)nc3ccccc32)cc1 [XXII],> 10 µg/mL,–,"2,946",0.48 µg/mL,–,38 µg/mL,"2,719",0.52 µg/mL,1410 µg/mL,–,–,–,–,–
"c1ccc(Cn2c(CNc3ccncc3)nc3ccccc32)cc1 [XXIV, 1-benzyl-2-(4-pyridylaminomethyl)benzimidazole]",–,–,–,–,–,> 50 µg/mL,–,–,> 2000 µg/mL,> 100 µg/mL,–,> 36,56.2 µg/mL,–
c1ccc(-n2c(CNc3ccncc3)nc3ccccc32)cc1 [XXI],48 µg/mL,–,943,1.5 µg/mL,–,> 50 µg/mL,943,1.5 µg/mL,1410 µg/mL,–,29,–,–,–
"CCc1cc2[nH]c(CNc3ccncc3)nc2cc1Br [XXXI, 2-(4-pyridylaminomethyl)-5(6)-ethyl-6(5)-bromobenzimidazole]",82 µg/mL,–,–,> 10 µg/mL,–,1.4 µg/mL,74,1.2 µg/mL,88.4 µg/mL,–,1,–,–,–
CCc1cc2nc(CNc3ccncc3)[nH]c2cc1Cl [XXXII],35 µg/mL,–,7,12.5 µg/mL,–,< 1 µg/mL,134,0.66 µg/mL,88.4 µg/mL,–,3,–,–,–
COc1cc2nc(CNc3ccncc3)[nH]c2cc1OC [XXXIV],–,–,–,–,–,–,–,–,> 100 µg/mL,> 100 µg/mL,–,–,–,–
Cn1c(CNc2ccncc2)nc2ccc(Cl)cc21 [XXXIX],> 100 µg/mL,–,> 1,82 µg/mL,–,> 50 µg/mL,> 2,50 µg/mL,> 100 µg/mL,–,–,–,–,–
Cc1ccc2c(c1)nc(CNc1ccncc1)n2C [XXXVI],–,–,–,–,–,–,–,–,> 100 µg/mL,> 100 µg/mL,–,–,–,–
Fc1cc2nc(CNc3ccncc3)[nH]c2cc1Cl [XXXV],> 100 µg/mL,–,> 3,34 µg/mL,–,15.5 µg/mL,> 15,6.8 µg/mL,> 100 µg/mL,–,–,–,–,–
Cc1cc2nc(CNc3ccncc3)[nH]c2cc1F [XXX],> 100 µg/mL,–,–,> 50 µg/mL,–,8.6 µg/mL,> 8,12 µg/mL,> 100 µg/mL,–,–,–,–,–
OCCn1c(CNc2ccncc2)nc2ccccc21 [XX],–,–,–,> 100 µg/mL,–,–,–,–,> 2000 µg/mL,> 100 µg/mL,–,–,–,–
Cn1c(CNc2ccncc2)nc2ccccc21 [X],170 µg/mL,–,> 31,32 µg/mL,–,> 100 µg/mL,> 30,33 µg/mL,> 1000 µg/mL,–,> 6,–,–,–
